Data on five molecules can be found in US5462726A, “Method of inhibiting side effects of solvents containing ricinoleic acid or castor oil or derivatives thereof employing a thromboxane A2 receptor antagonist and pharmaceutical compositions containing such solvents” (priority 1993, dated 1995).

One series has as its system jugular vein. The series can be described thus: Force development in isolated jugular vein rings. In kind it is cell-based, rabbit (male New Zealand white). Conditions: for Force development / vasoconstriction (result in words): cumulative addition, isolated vessel; for EC50: read-out: EC50 for ricinoleic acid-induced force. As for the experimental part:
(§1) Male New Zealand white rabbits were euthanized by intravenous barbiturate overdose. The thoracic aorta and the left and right external jugular veins were then removed into warm (37° C.) physiological salt solution (PSS) of the following composition (mM): NaCl, 118.4; KCl, 4.7; CaCl2, 2.5; MgSO4, 1.2; NaHCO3, 24.9; KH2 PO4, 1.2; glucose, 11.1 and EDTA, 0.023; gassed with 95% O2 /5% CO2, pH 7.4. The vessels were cleaned of fat and loose adventitia and subsequently cut into rings 3-4 mm in width. The endothelium was removed from the rings, unless otherwise indicated, by gently rotating a metal probe in the lumen of the ring. The rings were then suspended in water-jacketed (37° C.) 10 ml tissue baths between two wire holders, one of which was attached to a fixed hook and the other to an isometric force transducer. Resting tension was set at 4 g for the aorta and 1 g for the jugular vein. The venous tissues were allowed to stabilize for a period of one hour and then challenged with a maximally effective concentration of bradykinin (1 μM) to evoke a tonic contracture. This response was used as a comparative reference response. Carbachol (1 μM) was introduced into the bath following stabilization of the bradykinin contracture to test for the presence of endothelium. […] The tissues were washed multiple times with fresh PSS and allowed to recover for one hour following complete relaxation from the previous bradykinin response. […] Inhibitors (enzyme or receptor) or their vehicle were introduced into the tissue bath 30 mins prior to the addition of stimulant.
(§2) Cremophor and ricinoleic acid (Sigma Chemical company) were also diluted in ethanol. […] Ricinoleic acid was diluted in ethanol to produce final bath concentrations of (μg/ml; final bath concentration of ethanol in parentheses): 0.1 (0.1%), 0.3 (0.3%), 1.0 (0.37%), 3.0 (0.57%), 10 (0.64%), 30 (0.84%). For reference, 0.1-30 μg/ml ricinoleic acid corresponds to a molar concentration range of 0.335-100.50 μM.
(§3) Force (mean±S.E.) is expressed as a percentage of the corresponding bradykinin or phenylephrine reference response. KB values were determined by Schild analysis and KBapp by the following formula: KBapp =[antagonist]/agonist concentration ratio-1, where agonist concentration ratio=agonist EC50 measured in presence of antagonist/agonist EC50 measured in presence of vehicle. The statistical significance between means was determined using Student's t-test with p<0.05 considered statistically significant.

Series [1] addresses T1, CsA-induced force development in the jugular vein (thromboxane A2 receptors) (Oryctolagus cuniculus, UniProt Q6WQI8).
T1 sequence (Q6WQI8 1-233): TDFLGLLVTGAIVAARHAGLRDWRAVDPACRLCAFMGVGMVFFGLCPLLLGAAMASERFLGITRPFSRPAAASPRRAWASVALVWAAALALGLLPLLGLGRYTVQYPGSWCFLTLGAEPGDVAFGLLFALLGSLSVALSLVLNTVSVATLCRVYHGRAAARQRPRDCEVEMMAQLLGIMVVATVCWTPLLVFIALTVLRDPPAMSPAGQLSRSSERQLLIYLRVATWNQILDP
The series can be described thus: Inhibition of CsA-induced force in the jugular vein. The conditions noted are these: for Effect on potency and maximal contractile effect of CsA (words): phentolamine 10 μM. Type of series: cell-based, rabbit. As for the experimental part:
as §1, §2, §3

A further series addresses thromboxane A2 receptor. Conditions: dog coronary artery, Cocks et al 1990; cited from earlier work.
For series [2], the system named is Cremophor-induced force development in the jugular vein (thromboxane A2 receptors). The series can be described thus: Inhibition of Cremophor-induced force in the jugular vein. Conditions: for Effect on vasoconstrictor effects of Cremophor (words): indomethacin 10 μM. Type of series: cell-based, rabbit. The procedure: as §1, §2, §3
For series [3], the system named is ricinoleic acid-induced force in the jugular vein (thromboxane A2 receptors). The series can be described thus: Antagonism of ricinoleic acid-induced force in the jugular vein. In kind it is cell-based, rabbit. Conditions: indomethacin, vein only. As for the experimental part:
as §1, with “stimulant. A similar procedure was followed for the aorta except the effects of carbachol (1 μM) were tested against a submaximal concentration of phenylephrine (0.3 μM) and 30 μM phenylephrine was used to establish a reference contracture.” for “stimulant.”
as §2, §3

Series [4] can be described thus: Solubility in physiological salt solution bath. In kind it is physicochemical. Conditions: pH 7.4, ricinoleic acid in tissue bath, read-out: Concentration at which precipitation begins.
The next series relates to aorta. The series can be described thus: Force development in isolated thoracic aorta rings. Type of series: cell-based, rabbit (male New Zealand white). As for the experimental part: as §1, with “stimulant. […]” for “stimulant.”
as §3

For a further series, the system named is rat aorta. The series can be described thus: Ricinoleic acid force development in rat aorta. Type of series: cell-based.

In brackets after ≈: the same amount, converted by molar mass. Entries after “also recorded” stand apart in the source; their conditions may differ. Where two headings read alike, the source gives them in different places.

As to `CCO` [ethanol], the Emax at 0.44 % in the series with jugular vein (Oryctolagus cuniculus, cumulative addition of 0.44% ethanol, n=3, read-out: Force as % of bradykinin reference force) is 24.1 ± 3.3%. In addition, the “Force development / vasoconstriction (result in words)” value with jugular vein is reported as “constrict the vein”.
The term inhibition denotes the share of the control response that was lost under treatment. For the molecule `COc1ccc(Cl)cc1C(=O)NCCc1ccc(S(=O)(=O)NC(=O)NC2CCCCC2)cc1` [glyburide], the Schild slope in series [1] (against CsA-induced force) stood at 0.7. The Kb in series [1] (against CsA-induced force, Schild analysis, read-out: KB) is 600 nM; in series [1] (against CsA-induced force, glyburide 10 μM, n=4, read-out: KBapp), 1500 nM; at thromboxane A2 receptor it was 600 nM; in series [2] (Oryctolagus cuniculus, against Cremophor-induced force, glyburide 10 μM, n=3, read-out: KBapp), 900 nM. In addition, the inhibition at 10 µM in series [1] (read-out: Inhibition (reversal) of CsA-induced contraction) is 57.1%.
For `COc1ccc2c(c1)c(CC(=O)O)c(C)n2C(=O)c1ccc(Cl)cc1` [indomethacin], the “Effect on ricinoleic acid-induced force (words)” value in series [3] is given as “The contractile effects of neither ricinoleic acid nor Cremophor were prevented”; in series [3] (listed as Indomethacin), “no significant effect on ricinoleic acid-induced force”. The entries for the “Effect on vasoconstrictor effects of Cremophor (words)” value in series [2] and in series [2] (listed as Indomethacin) were “The contractile effects of neither ricinoleic acid nor Cremophor were prevented” and “failed to significantly inhibit the vasoconstrictor effects of Cremophor”, respectively.
On to `Cc1ccc(N(CC2=NCCN2)c2cccc(O)c2)cc1` [phentolamine], for which the “Effect on potency and maximal contractile effect of CsA (words)” value in series [1] is listed as “insensitive to phentolamine; also recorded: failed to antagonize the effects of CsA”; in series [1] (listed as Phentolamine), “significantly affected neither the potency nor the maximal contractile effect of CsA”.
As usually defined, the EC50 is the concentration needed to bring the measured effect to its halfway point. With `CCCCCC[C@@H](O)C/C=C\CCCCCCCC(=O)O` [ricinoleic acid], the solubility in series [4] was at least 100 µg/mL. Moreover, the EC50 in the series with aorta (Oryctolagus cuniculus, rabbit aorta, n=5, read-out: EC50 for ricinoleic acid-induced force) is 4.7 ± 0.7 µg/mL (≈ 15.7 µM); in the series with jugular vein (Oryctolagus cuniculus, control for indomethacin comparison, n=4), 0.17 ± 0.05 µg/mL; in the series with jugular vein (Oryctolagus cuniculus, in presence of indomethacin, n=4), 0.4 ± 0.11 µg/mL; in the series on jugular vein (Oryctolagus cuniculus, jugular vein, molar conversion), 800 nM; with jugular vein (Oryctolagus cuniculus, jugular vein, n=9), 0.24 ± 0.04 µg/mL; in the series with rat aorta (rat aorta, n=4, read-out: EC50 for ricinoleic acid-induced force) it was above 10000 nM. The “Force development (result in words)” value with aorta (aorta) is reported as “concentration-dependent increases in force”. For the same molecule, the “Fold more potent than Cremophor” value stood at 326 times in the series on aorta (in the aorta) and 165 times with jugular vein (in the vein). The “Force development / vasoconstriction (result in words)” value in the series with jugular vein is listed as “cause vasoconstriction”; with jugular vein (listed as Ricinoleic acid), “concentration-dependent increases in force”. Also, the “Fold more potent in vein than in aorta” value with jugular vein (ricinoleic acid, vein vs aorta) is listed as “approximately 20 times”. In the series with jugular vein (summary conclusion), the “Thromboxane A2 agonist character” value is “weak thromboxane A2 agonist”. Besides, the Emax at 100 µg/mL in the series on rat aorta (100 μg/ml ricinoleic acid, rat aorta, n=4, read-out: Force as % of maximum phenylephrine-induced response) was 18.8 ± 2.5%. The “Sensitivity of rat aorta” value with rat aorta (vs vein or rabbit aorta) is reported as “considerably less sensitive”.
